Consider 1 compound from publication PMC12838644, “Dihydrotanshinone as a Natural Product-Based CYP17A1 Lyase Inhibitor for Hyperandrogenic Disorders” (Biomolecules, 2026).

The subject of the assay is NCI-H295R, HEK-293T and RWPE-1 cells. The experiment in a line: alamarBlue cytotoxicity assay, across all three cell lines. Format: cell-based. The conditions noted are these: Homo sapiens, read-out: half-maximal inhibitory concentrations (IC50), range across all three cell lines. The method, then: Human adrenocortical NCI-H295R cells (ATCC: CRL-2128) were purchased from ATCC and cultured in DMEM/Ham’s F-12 medium with L-glutamine and 15 mM HEPES (Thermo Fisher Scientific, Waltham, MA, USA), supplemented with 5% NU-Serum (Becton Dickinson, Franklin Lakes, NJ, USA), 0.1% insulin, transferrin, selenium (100 U/mL; Thermo Fisher Scientific, Waltham, MA, USA), and 1% penicillin (100 U/mL; Thermo Fisher Scientific, Waltham, MA, USA), and streptomycin (100 μg/mL; GIBCO, New York, NY, USA). RWPE-1 cells (ATCC: CRL-36O7) were cultured in keratinocyte serum-free media (K-SFM) supplemented with 0.05 mg/mL bovine pituitary extract and 5 ng/mL epidermal growth factor, and 1% penicillin (100 U/mL; Thermo Fisher Scientific, Waltham, MA, USA), and streptomycin (100 μg/mL; GIBCO). […] Additionally, key functional and morphological characteristics were assessed to verify their alignment with previously reported profiles.
The alamarBlue® assay (Thermo Fisher Scientific, Waltham, MA USA) was conducted as previously described. […] Cell viability was measured using the alamarBlue® assay. […] The plates were incubated in the dark at 37 °C with 5% CO2 for 4 h, and fluorescence was measured at an excitation wavelength of 540 nm and an emission wavelength of 590 nm. Cell viability was calculated relative to the control sample treated with DMSO. […]
On the technique in general: The colour change of resazurin is a common sign of viable cells or microbes.

pIC50: −log10 of the molar value.

Regarding `Cc1cccc2c3c(ccc12)C1=C(C(=O)C3=O)[C@@H](C)CO1` [DT, dihydrotanshinone I], the pIC50 was 5.85 to 6.02.
